Counter-ions that a name gives are not always drawn. Like-named read-outs stand apart in the source and are kept apart here.
What was measured:
[1] = cited from earlier work; for Solubility: previous reports
[2] = higher than chlorhexidine; cited from earlier work
[3] = Solubilization of octenidine hydrochloride in solvents (homogeneous solution); assay type: physicochemical; conditions: for Homogeneous solution: 10% (w/w), room temperature 20-25° C.
Protocol: Previous reports have shown that octenidine hydrochloride is soluble in both propylene glycol and ethylhexylglycerine, both of which are diol solvents. Hydrogen-bonding solvents with different functionalities were tested for their ability to solvate octenidine hydrochloride. Each solvent was combined with octenidine hydrochloride at 10% (w/w) with mixing at room temperature, i.e., 20-25° C. In some cases, sonication and/or heat were added to hasten dissolution.

SMILES	Homogenous solution formation ([1]; in glycol fatty monoesters, known)	Antimicrobial efficacy relative to chlorhexidine [2]	Homogeneous solution ([3]; in 2-octyldodecanol)	Homogeneous solution ([3]; in glycerol monocaprylate)	Homogeneous solution ([3]; in glycerol monoisostearate)	Solubility ([3]; in glycol fatty monoesters)	Homogeneous solution ([3]; in lauramide diethanolamine)	Homogeneous solution ([3]; in methoxyisopropanol)	Homogeneous solution ([3]; in propylene glycol dicaprylate/caprate)	Homogeneous solution ([3]; in propylene glycol monoheptanoate)	Homogeneous solution ([3]; in propylene glycol monolaurate)	Homogeneous solution ([3]; in propylene glycol)	Solubility ([3]; in the glycol fatty diester)	Solubility ([3]; in the monohydric alcohol)	Solubility ([1]; in ethylhexylglycerine)	Solubility ([1]; in propylene glycol)
N=C(NCCCCCCNC(=N)NC(=N)Nc1ccc(Cl)cc1)NC(=N)Nc1ccc(Cl)cc1.O=C(O)[C@H](O)[C@@H](O)[C@H](O)[C@H](O)CO.O=C(O)[C@H](O)[C@@H](O)[C@H](O)[C@H](O)CO [chlorhexidine gluconate, Chlorhexidine digluconate]	do not form homogenous solutions															
CCCCCCCCN=c1ccn(CCCCCCCCCCn2ccc(=NCCCCCCCC)cc2)cc1 [octenidine hydrochloride, Octenidine hydrochloride]		3-10 times	No	Yes	Yes	soluble	Yes	Yes	No	Yes	Yes	Yes	insoluble	insoluble	soluble	soluble

Reference: patent US20230060820A1, “OCTENIDINE SALT ANTIMICROBIAL MEDICAL ARTICLES” (3M INNOVATIVE PROPERTIES COMPANY, priority 2019, published 2023)
